# Results published in ChEMBL document CHEMBL1201862, “PubChem BioAssay data set” (2004).
# The source made the active and inactive calls.
# Experiments:
# [1] = molecular target: T1, Ubiquitin-conjugating enzyme E2 N (Homo sapiens, UniProt P61088); assay type: functional;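 further: Dose-response confirmation in a TR-FRET assay detecting UBC13-driven polyubiquitin chain formation, inhibition measured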
# T1 sequence (P61088 whole entry): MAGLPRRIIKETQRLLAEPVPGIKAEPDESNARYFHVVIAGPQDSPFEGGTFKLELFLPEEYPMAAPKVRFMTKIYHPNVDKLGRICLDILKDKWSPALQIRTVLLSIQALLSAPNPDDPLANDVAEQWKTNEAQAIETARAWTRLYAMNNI
# cells [2] = assay type: functional, cell-based
# cells [3] = assay type: functional, cell-based; remark: listed apart in the source
# Fatty acid synthase = Fatty acid synthase (Homo sapiens, UniProt P49327); experiment: inhibition of human FAS-TE enzyme activity – biochemical, kinetic fluorescence intensity, dose response (AID 624326); assay type: functional;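 further: rate of fluorescence rise from hydrolysis of a fluorogenic O-methyl fluorescein ester substrate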
# [4] = molecular target: Heat shock protein HSP 90-alpha (Homo sapiens, UniProt P07900); assay type: functional, organism-based
# [5] = Luminescence Cell-Based Dose Retest to Confirm Inhibitors of Cancer Stem Cells. [Related pubchem assays (depositor defined):AID2717, AID2721]; assay type: functional; conditions: Homo sapiens
# INS1 = experiment: INS-1E survival protection against cytokine death – cell-based, luminescence, retest, dose response (AID 449756); assay type: functional; conditions: Rattus norvegicus;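 further: cell death triggered by IL-1 beta plus TNF-alpha plus IFN-gamma mixture; protective hits raise ATP signal compared with cytokine alone wells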
# [6] = Trypanosoma cruzi growth suppression in host cells – NIH3T3 host cells, beta-gal luminescence, confirmation (AID 2044); assay type: functional, cell-based;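 further: intracellular parasites grown in NIH/3T3 mouse fibroblasts as host cells; luminescent beta-galactosidase reporter signal from transgenic T. cruzi replicating inside host cells; inhibitors lower the luminescence signal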
# [7] = NIH3T3 cell viability loss – ATP luminescence, mouse fibroblasts, counter-screen, dose response (AID 2010); assay type: functional, cell-based;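 further: cells exposed to compound for about 90 hours before reading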
# [8] = blockers of HIV-1 envelope-mediated cell-cell fusion – cherry-pick, dose response (AID 652057); assay type: functional, cell-based
# [9] = blockers of HIV-1 ZM109 envelope-driven cell-cell fusion – HeLa effector, CEM target cells, luciferase, cherry-pick, dose response (AID 652058); assay type: functional, cell-based;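 further: luciferase signal from HIV-1 Env mediated cell-cell fusion of effector and target cells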
# [10] = off-target signal loss in HeLa-CEM21 co-culture – HeLa F-luc CTL cells, cherry-picked, counter-screen for HIV-1 Env fusion inhibitor project, dose response (AID 652040); assay type: functional, cell-based;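 further: potency for signal decrease marking cytotoxic or nonspecific inhibition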
# [11] = HIV-1 AD8 envelope cell-cell fusion blockers – cherry-pick, dose response (AID 652062); assay type: functional, cell-based;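 further: luciferase signal from cell-cell fusion driven by HIV-1 clade B AD8 Env; potency is for inhibitors of fusion seen as a drop in luminescence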
# [12] = NIH-3T3 fibroblast cytotoxicity, dose response, cytotoxicity control, cell-based, fluorescence, Alamar Blue, secondary assay (AID 2327); assay type: functional;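 further: NIH-3T3 mouse fibroblasts cultured with fluconazole at 8 µg/mL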
# [13] = fluconazole-exposed Candida albicans growth modulators – fluorescence, retest, confirmation (AID 2467); assay type: functional, cell-based
# Sequence of Fatty acid synthase (P49327 whole entry): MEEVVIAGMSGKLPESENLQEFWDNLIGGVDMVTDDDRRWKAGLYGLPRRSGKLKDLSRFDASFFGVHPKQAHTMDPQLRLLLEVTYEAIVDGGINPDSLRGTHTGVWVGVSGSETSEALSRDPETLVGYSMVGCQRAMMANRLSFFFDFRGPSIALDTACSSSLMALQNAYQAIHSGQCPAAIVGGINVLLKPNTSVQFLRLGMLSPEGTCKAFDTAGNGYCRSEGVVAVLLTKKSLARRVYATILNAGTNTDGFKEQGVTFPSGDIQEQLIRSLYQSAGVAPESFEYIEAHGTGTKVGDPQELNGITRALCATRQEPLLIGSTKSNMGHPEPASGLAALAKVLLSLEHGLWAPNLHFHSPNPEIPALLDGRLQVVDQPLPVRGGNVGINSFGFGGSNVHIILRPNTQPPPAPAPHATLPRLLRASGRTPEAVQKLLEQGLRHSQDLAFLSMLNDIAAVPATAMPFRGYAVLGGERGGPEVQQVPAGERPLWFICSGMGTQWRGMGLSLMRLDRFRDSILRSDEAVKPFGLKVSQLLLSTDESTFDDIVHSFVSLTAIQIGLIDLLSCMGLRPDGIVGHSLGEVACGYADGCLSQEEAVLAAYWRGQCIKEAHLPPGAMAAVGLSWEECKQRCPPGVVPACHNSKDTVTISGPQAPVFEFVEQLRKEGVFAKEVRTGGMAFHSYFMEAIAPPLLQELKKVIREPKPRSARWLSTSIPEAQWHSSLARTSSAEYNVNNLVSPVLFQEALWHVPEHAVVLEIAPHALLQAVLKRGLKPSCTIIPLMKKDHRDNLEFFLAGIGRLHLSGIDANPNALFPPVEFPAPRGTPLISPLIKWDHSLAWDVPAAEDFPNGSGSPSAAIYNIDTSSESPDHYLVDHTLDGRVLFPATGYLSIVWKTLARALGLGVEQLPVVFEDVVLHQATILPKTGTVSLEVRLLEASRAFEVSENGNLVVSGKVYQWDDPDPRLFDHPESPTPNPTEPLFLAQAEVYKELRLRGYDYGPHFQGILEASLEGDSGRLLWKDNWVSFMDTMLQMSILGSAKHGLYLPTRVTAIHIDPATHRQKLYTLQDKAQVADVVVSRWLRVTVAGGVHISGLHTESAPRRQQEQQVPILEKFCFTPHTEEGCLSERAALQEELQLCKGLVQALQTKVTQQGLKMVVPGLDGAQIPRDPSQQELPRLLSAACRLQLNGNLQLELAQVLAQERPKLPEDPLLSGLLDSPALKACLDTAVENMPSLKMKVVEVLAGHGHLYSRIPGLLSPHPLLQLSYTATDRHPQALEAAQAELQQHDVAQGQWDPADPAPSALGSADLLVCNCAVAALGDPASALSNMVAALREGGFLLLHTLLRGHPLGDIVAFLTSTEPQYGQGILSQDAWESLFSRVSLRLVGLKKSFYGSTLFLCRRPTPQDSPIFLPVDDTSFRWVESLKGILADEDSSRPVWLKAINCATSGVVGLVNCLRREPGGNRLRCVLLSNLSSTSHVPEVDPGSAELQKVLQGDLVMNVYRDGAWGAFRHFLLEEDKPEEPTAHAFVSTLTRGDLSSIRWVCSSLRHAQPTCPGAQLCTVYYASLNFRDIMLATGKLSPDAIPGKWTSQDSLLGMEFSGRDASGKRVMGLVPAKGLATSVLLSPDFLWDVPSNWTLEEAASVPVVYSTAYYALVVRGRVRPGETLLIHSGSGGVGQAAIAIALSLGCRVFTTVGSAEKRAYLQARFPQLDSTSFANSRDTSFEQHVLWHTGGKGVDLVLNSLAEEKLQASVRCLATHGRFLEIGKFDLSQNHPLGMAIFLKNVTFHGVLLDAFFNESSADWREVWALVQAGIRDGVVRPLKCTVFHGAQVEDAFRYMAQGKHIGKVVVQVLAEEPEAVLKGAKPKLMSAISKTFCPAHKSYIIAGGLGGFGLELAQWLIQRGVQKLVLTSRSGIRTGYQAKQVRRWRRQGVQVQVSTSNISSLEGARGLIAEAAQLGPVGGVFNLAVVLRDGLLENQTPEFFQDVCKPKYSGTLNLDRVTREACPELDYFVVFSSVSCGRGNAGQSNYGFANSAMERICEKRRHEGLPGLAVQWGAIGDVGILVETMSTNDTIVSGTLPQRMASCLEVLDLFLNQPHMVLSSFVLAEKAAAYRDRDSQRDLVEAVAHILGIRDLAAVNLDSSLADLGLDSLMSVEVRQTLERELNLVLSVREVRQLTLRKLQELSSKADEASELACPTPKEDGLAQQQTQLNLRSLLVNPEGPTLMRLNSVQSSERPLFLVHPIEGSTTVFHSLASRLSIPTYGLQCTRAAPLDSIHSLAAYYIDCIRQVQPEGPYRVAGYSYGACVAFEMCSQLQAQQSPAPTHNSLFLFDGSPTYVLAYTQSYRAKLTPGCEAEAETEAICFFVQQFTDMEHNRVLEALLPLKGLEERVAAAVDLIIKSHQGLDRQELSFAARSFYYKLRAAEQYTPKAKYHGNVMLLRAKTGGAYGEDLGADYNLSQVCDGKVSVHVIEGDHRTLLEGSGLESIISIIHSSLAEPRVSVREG
smiles,measurement,setting,value
NC(S)=Nc1nc2ccccc2nc1O,IC50,[1],> 20 µM (inactive)
CC(=O)Nc1cc2c(cc1Br)OCCO2,EC50,cells [2],> 350 µM (not active)
same,EC50,cells [3],> 350 µM (not active)
CCOc1ccc(C(=O)NC(=S)Nc2cccc(NC(=O)c3ccco3)c2)cc1[N+](=O)[O-],EC50,cells [2],> 350 µM (not active)
same,EC50,cells [3],> 350 µM (not active)
O=C(COc1ccccc1)Nc1nc(-c2ccc(S(=O)(=O)N3CCOCC3)cc2)cs1,IC50,Fatty acid synthase,0.489 µM (active)
O=S(=O)(NC1CC2CCC1C2)c1ccc(Cl)cc1 (configuration not stated),AC50,[4],0.538 µM (active)
COc1ccc(CCNc2ccc(C(CC(N)=O)NC(=O)c3ccc(Br)cc3)cc2[N+](=O)[O-])cc1 (configuration not stated),AC50,[5],5.51 µM (active)
same,AC50,INS1,12.9 µM (active)
Cc1ccc2nc(-c3cccc(NS(C)(=O)=O)c3)cc(-c3ccccc3)c2c1,AC50,[5],4.13 µM (active)
same,AC50,[4],4.75 µM (active)
CC(C)CCSc1nc(N)c(C#N)cc1C#N,EC50,[6],0.542 µM (active)
same,EC50,[7],> 60 µM (not active)
same,AC50,[8],26.2 µM (active)
same,AC50,[9],32.3 µM (active)
same,AC50,[10],23.4 µM (active)
same,AC50,[11],25.6 µM (active)
O=C(O)/C=C/c1cnn(-c2ccccc2)c1,EC50,cells [2],> 350 µM (not active)
same,EC50,cells [3],2.39 µM (active)
COC(=O)c1ccccc1S(=O)(=O)N1CCC(C(=O)N2CCC2)CC1,IC50,[1],> 20 µM (inactive)
CN(C)C(=O)CSc1nc2ccccc2n1Cc1ccccc1,EC50,cells [2],> 350 µM (not active)
same,EC50,cells [3],> 350 µM (not active)
O=C(Nc1nc(-c2ccccn2)cs1)c1cc2ccccc2o1,EC50,[12],20.5 µM (active)
same,EC50,[13],1.49 µM (active)
same,EC50,[6],1.46 µM (active)
same,EC50,[7],9.05 µM (active)
same,AC50,[4],4.49 µM (active)
